How the values were obtained:
Assay type in all cases: cell-based
[1] = Toxicity in human HEK293 cells assessed as reduction in cell viability at 10 uM; conditions: hek293, 10 µM
[2] = molecular target: T1, Oxysterols receptor LXR-alpha (Homo sapiens, UniProt Q13133); experiment: Agonist activity against human LXRalpha expressed in human HEK293T cells co-expressing CMX-GAL4N-hLXRalpha incubated for 24 hrs by reporter gene assay
T1 sequence (Q13133 whole entry): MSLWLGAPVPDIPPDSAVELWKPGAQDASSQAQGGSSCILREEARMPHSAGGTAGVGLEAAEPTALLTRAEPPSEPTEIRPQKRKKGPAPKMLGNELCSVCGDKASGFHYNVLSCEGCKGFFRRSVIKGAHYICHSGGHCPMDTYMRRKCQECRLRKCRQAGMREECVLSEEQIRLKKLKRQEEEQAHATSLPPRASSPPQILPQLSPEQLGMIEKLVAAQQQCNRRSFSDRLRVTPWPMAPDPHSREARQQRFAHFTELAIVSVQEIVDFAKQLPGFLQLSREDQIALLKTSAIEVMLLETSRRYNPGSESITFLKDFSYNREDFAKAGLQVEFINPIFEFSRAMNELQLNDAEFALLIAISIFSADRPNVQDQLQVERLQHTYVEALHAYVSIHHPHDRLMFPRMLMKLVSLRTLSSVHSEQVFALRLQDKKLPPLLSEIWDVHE

[3] = molecular target: T2, Oxysterols receptor LXR-beta (Homo sapiens, UniProt P55055); experiment: Agonist activity against human LXRbeta expressed in human HEK293T cells co-expressing CMX-GAL4N-hLXRbeta incubated for 24 hrs by reporter gene assay
T2 sequence (P55055 whole entry): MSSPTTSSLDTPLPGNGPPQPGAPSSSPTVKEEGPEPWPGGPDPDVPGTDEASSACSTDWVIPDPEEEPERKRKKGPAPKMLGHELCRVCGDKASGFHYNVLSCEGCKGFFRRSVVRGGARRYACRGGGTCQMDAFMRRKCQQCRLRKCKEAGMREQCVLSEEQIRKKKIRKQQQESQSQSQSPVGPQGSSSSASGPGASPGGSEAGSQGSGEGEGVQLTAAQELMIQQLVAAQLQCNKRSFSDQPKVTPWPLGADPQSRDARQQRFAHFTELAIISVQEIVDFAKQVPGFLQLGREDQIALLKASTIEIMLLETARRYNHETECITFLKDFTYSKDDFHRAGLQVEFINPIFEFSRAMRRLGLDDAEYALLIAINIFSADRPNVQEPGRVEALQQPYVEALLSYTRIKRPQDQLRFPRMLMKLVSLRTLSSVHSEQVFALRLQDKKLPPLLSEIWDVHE

[4] = molecular target: T3, Oxysterols receptor LXR-alpha (Homo sapiens) (UniProt Q13133); experiment: Partial agonist activity against human LXRalpha in human HEK293T cells incubated for 24 hrs by reporter gene assay relative to T0901317
T3 sequence (whole entry): T1 sequence (Q13133 whole entry)

[5] = molecular target: T4, Oxysterols receptor LXR-beta (Homo sapiens) (UniProt P55055); experiment: Partial agonist activity against human LXRbeta in human HEK293T cells incubated for 24 hrs by reporter gene assay T0901317
T4 sequence (whole entry): T2 sequence (P55055 whole entry)

Structure (SMILES) | Activity [1] | EC50 [2] [nM] | EC50 [3] [nM] | Activity [4] [%] | Activity [5] [%]
O=S(=O)(c1ccccc1)N(CC(F)(F)F)c1ccc(C(O)(C(F)(F)F)C(F)(F)F)cc1 [T091317] | Non-Toxic | – | – | – | –
C[Si](C)(c1ccc(C(O)(C(F)(F)F)C(F)(F)F)cc1)C1CCCCC1 | Non-Toxic | 1430 | 740 | – | –
CC[Si](C)(CC)c1ccc(C(O)(C(F)(F)F)C(F)(F)F)cc1 | Non-Toxic | 590 | 690 | – | –
CN(c1ccc(C(O)(C(F)(F)F)C(F)(F)F)cc1)S(=O)(=O)c1ccccc1 | Non-Toxic | – | – | – | –
CC(O)[Si](C)(C)c1ccc(C(O)(C(F)(F)F)C(F)(F)F)cc1 (stereo not given) | Non-Toxic | 4450 | 3340 | – | –
CCCC[Si](C)(C)c1ccc(C(O)(C(F)(F)F)C(F)(F)F)cc1 | Non-Toxic | 2350 | 1700 | – | –
C[Si](C)(CCO)c1ccc(C(O)(C(F)(F)F)C(F)(F)F)cc1 | Non-Toxic | 1460 | 1730 | – | –
C[Si](C)(Cc1ccccc1)c1ccc(C(O)(C(F)(F)F)C(F)(F)F)cc1 | Non-Toxic | 940 | 720 | – | –
C[Si](C)(C)[Si](C)(C)c1ccc(C(O)(C(F)(F)F)C(F)(F)F)cc1 | Non-Toxic | 580 | 510 | – | –
CCC[Si](CCC)(CCC)c1ccc(C(O)(C(F)(F)F)C(F)(F)F)cc1 | Non-Toxic | 430 | 590 | – | –
C[Si](O)(c1ccccc1)c1ccc(C(O)(C(F)(F)F)C(F)(F)F)cc1 (stereo not given) | Non-Toxic | 8500 | 5030 | – | –
CC(C)(C)[Si](C)(C)c1ccc(C(O)(C(F)(F)F)C(F)(F)F)cc1 | Non-Toxic | 1130 | 650 | – | –
C=C[Si](C)(C)c1ccc(C(O)(C(F)(F)F)C(F)(F)F)cc1 | Non-Toxic | 2060 | 1800 | – | –
C[Si](C)(CCCO)c1ccc(C(O)(C(F)(F)F)C(F)(F)F)cc1 | Non-Toxic | 4450 | 4030 | – | –
CC[Si](CC)(CC)c1ccc(C(O)(C(F)(F)F)C(F)(F)F)cc1 | Non-Toxic | 620 | 530 | – | –
C[Si](C)(c1ccccc1)c1ccc(C(O)(C(F)(F)F)C(F)(F)F)cc1 | Non-Toxic | 2150 | 740 | – | –
C=CC[Si](C)(C)c1ccc(C(O)(C(F)(F)F)C(F)(F)F)cc1 | Non-Toxic | 500 | 450 | – | –
OC(c1ccc([Si](Cc2ccccc2)(Cc2ccccc2)Cc2ccccc2)cc1)(C(F)(F)F)C(F)(F)F | Non-Toxic | 4980 | 1980 | 19 | 27
C[Si](C)(C)c1ccc(C(O)(C(F)(F)F)C(F)(F)F)cc1 | Non-Toxic | 3120 | 1410 | – | –

— ChEMBL document CHEMBL5143705, “Design, synthesis and structure-activity relationship of 4-(1,1,1,3,3,3-hexafluoro-2-hydroxyisoprop-2-yl)phenylsilane derivatives as liver X receptor agonists” (Bioorg Med Chem, 2022)
